Reference: patent US20220096516A1, “OLIGONUCLEOTIDE MOLECULE AND APPLICATION THEREOF IN TUMOR THERAPY” (Ractigen Therapeutics, priority 2019, published 2022)
d = 2'-deoxy (DNA); r = 2'-OH (RNA)

Test system: LHPP gene
Test: High-throughput screening of saRNAs targeting LHPP promoter: LHPP mRNA by one-step RT-qPCR in Huh7 cells
Type: cell-based, human
Details: 10 nM saRNA, 72 hours, relative to control (Mock)
Summary of the method: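 LHPP transcript level relative to mock, normalised to the geometric mean of the HPRT1 and TBP reference genes, measured by one-step RT-qPCR on crude lysates. Huh7 cells had been RNAiMax-transfected with each saRNA at 10 nM for 72 h.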

Row | Substance | Fold of changes in relative LHPP mRNA expression level | Fold of changes in relative LHPP mRNA expression level (log2)
1 | RAG7-189: saRNA duplex; sense CUUCUUGUCUCAAUUUGCCTT (SEQ ID NO: 35), antisense GGCAAAUUGAGACAAGAAGTT (SEQ ID NO: 199) (sugars from the 5' end r19 d2, backbone not given here) | 1.47 fold | 0.56 log2
2 | RAG7-190: saRNA duplex; sense CCUUCUUGUCUCAAUUUGCTT (SEQ ID NO: 130), antisense GCAAAUUGAGACAAGAAGGTT (SEQ ID NO: 294) (sugars from the 5' end r19 d2, backbone not given here) | 1.16 fold | 0.22 log2
3 | RAG7-191: saRNA duplex; sense GCCUUCUUGUCUCAAUUUGTT (SEQ ID NO: 88), antisense CAAAUUGAGACAAGAAGGCTT (SEQ ID NO: 252) (sugars from the 5' end r19 d2, backbone not given here) | 1.25 fold | 0.32 log2
4 | RAG7-193: saRNA duplex; sense GUGCCUUCUUGUCUCAAUUTT (SEQ ID NO: 113), antisense AAUUGAGACAAGAAGGCACTT (SEQ ID NO: 277) (sugars from the 5' end r19 d2, backbone not given here) | 1.19 fold | 0.26 log2
5 | RAG7-194: saRNA duplex; sense GGUGCCUUCUUGUCUCAAUTT (SEQ ID NO: 48), antisense AUUGAGACAAGAAGGCACCTT (SEQ ID NO: 212) (sugars from the 5' end r19 d2, backbone not given here) | 1.38 fold | 0.47 log2
6 | RAG7-195: saRNA duplex; sense AGGUGCCUUCUUGUCUCAATT (SEQ ID NO: 28), antisense UUGAGACAAGAAGGCACCUTT (SEQ ID NO: 192) (sugars from the 5' end r19 d2, backbone not given here) | 1.51 fold | 0.59 log2
7 | RAG7-196: saRNA duplex; sense CAGGUGCCUUCUUGUCUCATT (SEQ ID NO: 38), antisense UGAGACAAGAAGGCACCUGTT (SEQ ID NO: 202) (sugars from the 5' end r19 d2, backbone not given here) | 1.45 fold | 0.54 log2
8 | RAG7-198: saRNA duplex; sense UACAGGUGCCUUCUUGUCUTT (SEQ ID NO: 134), antisense AGACAAGAAGGCACCUGUATT (SEQ ID NO: 298) (sugars from the 5' end r19 d2, backbone not given here) | 1.16 fold | 0.21 log2
9 | RAG7-670: saRNA duplex; sense CAGGGCUGUUAUCUGCAUATT (SEQ ID NO: 136), antisense UAUGCAGAUAACAGCCCUGTT (SEQ ID NO: 300) (sugars from the 5' end r19 d2, backbone not given here) | 1.15 fold | 0.20 log2
10 | RAG7-676: saRNA duplex; sense UCUAUGCAGGGCUGUUAUCTT (SEQ ID NO: 83), antisense GAUAACAGCCCUGCAUAGATT (SEQ ID NO: 247) (sugars from the 5' end r19 d2, backbone not given here) | 1.26 fold | 0.33 log2
11 | RAG7-677: saRNA duplex; sense AUCUAUGCAGGGCUGUUAUTT (SEQ ID NO: 20), antisense AUAACAGCCCUGCAUAGAUTT (SEQ ID NO: 184) (sugars from the 5' end r19 d2, backbone not given here) | 1.56 fold | 0.64 log2
12 | RAG7-678: saRNA duplex; sense CAUCUAUGCAGGGCUGUUATT (SEQ ID NO: 63), antisense UAACAGCCCUGCAUAGAUGTT (SEQ ID NO: 227) (sugars from the 5' end r19 d2, backbone not given here) | 1.33 fold | 0.41 log2
13 | RAG7-679: saRNA duplex; sense UCAUCUAUGCAGGGCUGUUTT (SEQ ID NO: 107), antisense AACAGCCCUGCAUAGAUGATT (SEQ ID NO: 271) (sugars from the 5' end r19 d2, backbone not given here) | 1.20 fold | 0.27 log2
14 | RAG7-681: saRNA duplex; sense CCUCAUCUAUGCAGGGCUGTT (SEQ ID NO: 149), antisense CAGCCCUGCAUAGAUGAGGTT (SEQ ID NO: 313) (sugars from the 5' end r19 d2, backbone not given here) | 1.13 fold | 0.17 log2
15 | RAG7-684: saRNA duplex; sense CAUCCUCAUCUAUGCAGGGTT (SEQ ID NO: 47), antisense CCCUGCAUAGAUGAGGAUGTT (SEQ ID NO: 211) (sugars from the 5' end r19 d2, backbone not given here) | 1.39 fold | 0.47 log2
16 | RAG7-686: saRNA duplex; sense UGCAUCCUCAUCUAUGCAGTT (SEQ ID NO: 86), antisense CUGCAUAGAUGAGGAUGCATT (SEQ ID NO: 250) (sugars from the 5' end r19 d2, backbone not given here) | 1.25 fold | 0.32 log2
17 | RAG7-687: saRNA duplex; sense AUGCAUCCUCAUCUAUGCATT (SEQ ID NO: 162), antisense UGCAUAGAUGAGGAUGCAUTT (SEQ ID NO: 326) (sugars from the 5' end r19 d2, backbone not given here) | 1.10 fold | 0.14 log2
18 | RAG7-690: saRNA duplex; sense CCUAUGCAUCCUCAUCUAUTT (SEQ ID NO: 42), antisense AUAGAUGAGGAUGCAUAGGTT (SEQ ID NO: 206) (sugars from the 5' end r19 d2, backbone not given here) | 1.42 fold | 0.51 log2
19 | RAG7-691: saRNA duplex; sense UCCUAUGCAUCCUCAUCUATT (SEQ ID NO: 30), antisense UAGAUGAGGAUGCAUAGGATT (SEQ ID NO: 194) (sugars from the 5' end r19 d2, backbone not given here) | 1.50 fold | 0.58 log2
20 | RAG7-692: saRNA duplex; sense GUCCUAUGCAUCCUCAUCUTT (SEQ ID NO: 124), antisense AGAUGAGGAUGCAUAGGACTT (SEQ ID NO: 288) (sugars from the 5' end r19 d2, backbone not given here) | 1.17 fold | 0.22 log2
21 | RAG7-693: saRNA duplex; sense GGUCCUAUGCAUCCUCAUCTT (SEQ ID NO: 98), antisense GAUGAGGAUGCAUAGGACCTT (SEQ ID NO: 262) (sugars from the 5' end r19 d2, backbone not given here) | 1.22 fold | 0.29 log2
22 | RAG7-695: saRNA duplex; sense CAGGUCCUAUGCAUCCUCATT (SEQ ID NO: 54), antisense UGAGGAUGCAUAGGACCUGTT (SEQ ID NO: 218) (sugars from the 5' end r19 d2, backbone not given here) | 1.36 fold | 0.44 log2
23 | RAG7-696: saRNA duplex; sense CCAGGUCCUAUGCAUCCUCTT (SEQ ID NO: 17), antisense GAGGAUGCAUAGGACCUGGTT (SEQ ID NO: 181) (sugars from the 5' end r19 d2, backbone not given here) | 1.58 fold | 0.66 log2
24 | RAG7-697: saRNA duplex; sense CCCAGGUCCUAUGCAUCCUTT (SEQ ID NO: 41), antisense AGGAUGCAUAGGACCUGGGTT (SEQ ID NO: 205) (sugars from the 5' end r19 d2, backbone not given here) | 1.43 fold | 0.51 log2
25 | RAG7-698: saRNA duplex; sense GCCCAGGUCCUAUGCAUCCTT (SEQ ID NO: 118), antisense GGAUGCAUAGGACCUGGGCTT (SEQ ID NO: 282) (sugars from the 5' end r19 d2, backbone not given here) | 1.18 fold | 0.24 log2
